Source: ChEMBL document CHEMBL1201861, “Genomics of Drug Sensitity in Cancer screening data, Wellcome Trust Sanger Institute”
Several values for one entry are separate records, joined by “and”; a condition that tells them apart may be missing. Equal values may be shown once. Where a SMILES comes first, the peptide text is derived from it. The star is where a group is joined. Cbz = O=C(OCc1ccccc1)*

Key:
NCI-H345 = test: cells; type: functional, cell-based, Homo sapiens;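 also: growth inhibition of NCI-H345 cells measured with a cell viability assay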
Description: SANGER: Inhibition of human NCI-H345 cell growth in a cell viability assay.

MRK-nu-1 = test: cells; type: functional, cell-based, Homo sapiens;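 also: cell viability assay measuring growth suppression of human MRK-nu-1 cells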
Description: SANGER: Inhibition of human MRK-nu-1 cell growth in a cell viability assay.

BC-3 = test: cells; type: functional, cell-based, Homo sapiens;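 also: cell viability assay measuring growth inhibition of human BC-3 cells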
Description: SANGER: Inhibition of human BC-3 cell growth in a cell viability assay.

NCI-H128 = test: SANGER: Inhibition of human NCI-H128 cell growth in a cell viability assay.; type: functional, cell-based
EC-GI-10 = test: cells; type: functional, cell-based, Homo sapiens
Description: SANGER: Inhibition of human EC-GI-10 cell growth in a cell viability assay.

SKM-1 = test: SANGER: Inhibition of human SKM-1 cell growth in a cell viability assay.; type: functional, cell-based
EVSA-T = test: cells; type: functional, cell-based, Homo sapiens;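 also: growth inhibition of EVSA-T cells, read out with a cell viability assay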
Description: SANGER: Inhibition of human EVSA-T cell growth in a cell viability assay.

TUR = test: cells; type: functional, cell-based, Homo sapiens;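 also: growth inhibition of human TUR cells, read out with a cell viability assay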
Description: SANGER: Inhibition of human TUR cell growth in a cell viability assay.

EB2 = test: cells; type: functional, cell-based, Homo sapiens;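 also: growth inhibition of EB2 cells, read out with a cell viability assay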
Description: SANGER: Inhibition of human EB2 cell growth in a cell viability assay.

KMOE-2 = test: cells; type: functional, cell-based, Homo sapiens;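 also: growth inhibition of human KMOE-2 cells, read out with a cell viability assay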
Description: SANGER: Inhibition of human KMOE-2 cell growth in a cell viability assay.

EW-24 = test: cells; type: functional, cell-based, Homo sapiens;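 also: human EW-24 cancer cell line, growth inhibition read out via a cell viability assay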
Description: SANGER: Inhibition of human EW-24 cell growth in a cell viability assay.

TE-15 = test: cells; type: functional, cell-based, Homo sapiens;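 also: cell viability readout of growth inhibition in TE-15 cells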
Description: SANGER: Inhibition of human TE-15 cell growth in a cell viability assay.

EW-12 = test: SANGER: Inhibition of human EW-12 cell growth in a cell viability assay.; type: functional, cell-based
RT-112 = test: cells; type: functional, cell-based; conditions: Homo sapiens
Description: SANGER: Inhibition of human RT-112 cell growth in a cell viability assay.

FTC-133 = test: cells; type: functional, cell-based; conditions: Homo sapiens
TI-73 = test: cells; type: functional, cell-based; conditions: Homo sapiens;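 also: cell viability assay measuring how much compounds suppress growth of the cultured cell line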
Description: SANGER: Inhibition of human TI-73 cell growth in a cell viability assay.

CAL-27 = test: cells; type: functional, cell-based; conditions: Homo sapiens;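 also: Viability-based readout, IC50 reflecting inhibition of CAL-27 cell growth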
Description: SANGER: Inhibition of human CAL-27 cell growth in a cell viability assay.

HCC38 = test: cells; type: functional, cell-based; conditions: Homo sapiens;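 also: cell viability assay on the human HCC38 cell line, with IC50 marking the concentration that inhibits cell growth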
Description: SANGER: Inhibition of human HCC38 cell growth in a cell viability assay.

HT55 = test: cells; type: functional, cell-based; conditions: Homo sapiens;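 also: cell viability readout measuring growth inhibition of human HT55 cells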
Description: SANGER: Inhibition of human HT55 cell growth in a cell viability assay.

TCC-SUP = test: cells; type: functional, cell-based; conditions: Homo sapiens;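 also: growth inhibition of TCC-SUP cells, read out with a cell viability assay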
Description: SANGER: Inhibition of human TCCSUP cell growth in a cell viability assay.

HLE = test: cells; type: functional, cell-based; conditions: Homo sapiens;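 also: growth inhibition of human HLE cells, read out by a cell viability assay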
Description: SANGER: Inhibition of human HLE cell growth in a cell viability assay.

CAL-39 = test: cells; type: functional, cell-based; conditions: Homo sapiens;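 also: cell viability assay measuring growth inhibition of CAL-39 cells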
Description: SANGER: Inhibition of human CAL-39 cell growth in a cell viability assay.

SK-MEL-28 = test: cells; type: functional, cell-based; conditions: Homo sapiens;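 also: growth inhibition of human SK-MEL-28 cells, read out with a cell viability assay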
Description: SANGER: Inhibition of human SK-MEL-28 cell growth in a cell viability assay.

SK-MEL-24 = test: cells; type: functional, cell-based; conditions: Homo sapiens;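 also: growth inhibition read out by a cell viability assay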
Description: SANGER: Inhibition of human SK-MEL-24 cell growth in a cell viability assay.

MeWo = test: cells; type: functional, cell-based; conditions: Homo sapiens;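 also: growth inhibition of MeWo cells, determined by a cell viability readout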
Description: SANGER: Inhibition of human Mewo cell growth in a cell viability assay.

CHP-212 = test: cells; type: functional, cell-based; conditions: Homo sapiens
Description: SANGER: Inhibition of human CHP-212 cell growth in a cell viability assay.

786-0 = test: cells; type: functional, cell-based; conditions: Homo sapiens
Description: SANGER: Inhibition of human 786-0 cell growth in a cell viability assay.

HN = test: cells; type: functional, cell-based; conditions: Homo sapiens
Description: SANGER: Inhibition of human HN cell growth in a cell viability assay.

T84 = test: cells; type: functional, cell-based; conditions: Homo sapiens;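 also: growth inhibition measured with a cell viability readout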
Description: SANGER: Inhibition of human T84 cell growth in a cell viability assay.

MG-63 = test: cells; type: functional, cell-based; conditions: Homo sapiens;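 also: growth inhibition of human MG-63 cells, read out with a cell viability assay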
Description: SANGER: Inhibition of human MG-63 cell growth in a cell viability assay.

HuO9 = test: cells; type: functional, cell-based; conditions: Homo sapiens;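 also: growth inhibition of HuO9 cells, read out with a cell viability assay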
Description: SANGER: Inhibition of human HuO9 cell growth in a cell viability assay.

NCI-H1666 = test: cells; type: functional, cell-based; conditions: Homo sapiens;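 also: growth inhibition of the cell line, read out with a cell viability assay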
Description: SANGER: Inhibition of human NCI-H1666 cell growth in a cell viability assay.

COR-L23 = test: cells; type: functional, cell-based; conditions: Homo sapiens;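 also: cell viability assay measuring how strongly compounds suppress growth of COR-L23 cells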
Description: SANGER: Inhibition of human COR-L23 cell growth in a cell viability assay.

HSC-3 = test: cells; type: functional, cell-based; conditions: Homo sapiens
Description: SANGER: Inhibition of human HSC-3 cell growth in a cell viability assay.

SW48 = test: cells; type: functional, cell-based; conditions: Homo sapiens;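 also: growth inhibition of SW48 cells, read out with a cell viability assay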
Description: SANGER: Inhibition of human SW48 cell growth in a cell viability assay.

LU-135 = test: cells; type: functional, cell-based; conditions: Homo sapiens
Description: SANGER: Inhibition of human LU-135 cell growth in a cell viability assay.

EPLC-272H = test: cells; type: functional, cell-based; conditions: Homo sapiens
Description: SANGER: Inhibition of human EPLC-272H cell growth in a cell viability assay.

DK-MG = test: cells; type: functional, cell-based; conditions: Homo sapiens;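 also: growth inhibition of DK-MG cells, read out with a cell viability assay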
Description: SANGER: Inhibition of human DK-MG cell growth in a cell viability assay.

MIA PaCa-2 = test: cells; type: functional, cell-based; conditions: Homo sapiens;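 also: growth inhibition of MIA PaCa-2 cells, read out with a cell viability assay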
Description: SANGER: Inhibition of human MIA-PaCa-2 cell growth in a cell viability assay.

KU-19-19 = test: cells; type: functional, cell-based; conditions: Homo sapiens
Description: SANGER: Inhibition of human KU-19-19 cell growth in a cell viability assay.

NBsusSR = test: cells; type: functional, cell-based; conditions: Homo sapiens;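 also: growth inhibition of the human cell line, read out with a cell viability assay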
Description: SANGER: Inhibition of human NBsusSR cell growth in a cell viability assay.

UO-31 = test: cells; type: functional, cell-based; conditions: Homo sapiens
Description: SANGER: Inhibition of human U031 cell growth in a cell viability assay.

BHT-101 = test: cells; type: functional, cell-based; conditions: Homo sapiens
Description: SANGER: Inhibition of human BHT-101 cell growth in a cell viability assay.

Capan-2 = test: cells; type: functional, cell-based; conditions: Homo sapiens;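 also: Capan-2 cell growth inhibition, read out with a viability assay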
Description: SANGER: Inhibition of human Capan-2 cell growth in a cell viability assay.

Calu-3 = test: cells; type: functional, cell-based; conditions: Homo sapiens;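 also: growth inhibition of human Calu-3 cells, determined with a cell viability assay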
Description: SANGER: Inhibition of human Calu-3 cell growth in a cell viability assay.

BALL-1 = test: cells; type: functional, cell-based; conditions: Homo sapiens;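 also: growth inhibition of BALL-1 cells, read out with a cell viability assay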
Description: SANGER: Inhibition of human BALL-1 cell growth in a cell viability assay.

Which results are given for `Nc1ccccc1NC(=O)c1ccc(CNC(=O)OCc2cccnc2)cc1` [ENTINOSTAT]?
IC50 (NCI-H345; Homo sapiens, NCI-H345): 2.33 µM; IC50 (MRK-nu-1; Homo sapiens, MRK-nu-1): 0.432 µM; IC50 (BC-3; Homo sapiens, BC-3): 0.783 µM; IC50 (NCI-H128; Homo sapiens, NCI-H128): > 5 µM; IC50 (EC-GI-10; Homo sapiens, EC-GI-10): > 5 µM; IC50 (SKM-1; Homo sapiens, SKM-1): > 5 µM; IC50 (EVSA-T; Homo sapiens, EVSA-T): 1.18 µM; IC50 (TUR; Homo sapiens, TUR): > 5 µM; IC50 (EB2; Homo sapiens, EB2): > 5 µM; IC50 (KMOE-2; Homo sapiens, KMOE-2): 2.88 µM; IC50 (EW-24; Homo sapiens, EW-24): > 5 µM; IC50 (TE-15; Homo sapiens, TE-15): > 5 µM; IC50 (EW-12; Homo sapiens, EW-12): > 5 µM

Which IC50 (NCI-H345; Homo sapiens, NCI-H345) does the source give for `COc1cc(N2CCC(N3CCN(C)CC3)CC2)ccc1Nc1ncc(Cl)c(Nc2ccccc2S(=O)(=O)C(C)C)n1` [TAE-684] here?
The IC50 was over 2 µM.

What about the IC50 (MRK-nu-1; Homo sapiens, MRK-nu-1) of the same compound?
The IC50 was over 2 µM.

What about the IC50 (BC-3; Homo sapiens, BC-3) of the same compound?
The IC50 was over 2 µM.

What about the IC50 (NCI-H128; Homo sapiens, NCI-H128) of the same compound?
Its IC50 is over 2 µM.

What about the IC50 (EC-GI-10; Homo sapiens, EC-GI-10) of the same compound?
Its IC50 is over 2 µM.

What about the IC50 (SKM-1; Homo sapiens, SKM-1) of the same compound?
The IC50 was over 2 µM.

What about the IC50 (EVSA-T; Homo sapiens, EVSA-T) of the same compound?
Its IC50 is over 2 µM.

And the IC50 (TUR; Homo sapiens, TUR)?
The IC50 was over 2 µM.

And the IC50 (EB2; Homo sapiens, EB2)?
The IC50 was over 2 µM.

What about the IC50 (KMOE-2; Homo sapiens, KMOE-2) of the same compound?
The IC50 was over 2 µM.

What about the IC50 (EW-24; Homo sapiens, EW-24) of the same compound?
Its IC50 is over 2 µM.

What about the IC50 (TE-15; Homo sapiens, TE-15) of the same compound?
The IC50 was 0.511 µM.

What about the IC50 (EW-12; Homo sapiens, EW-12) of the same compound?
The IC50 was over 2 µM.

Which IC50 (NCI-H345; nci-h345) does the source give for `CC(C)C[C@@H](C=O)NC(=O)[C@H](CC(C)C)NC(=O)[C@H](CC(C)C)NC(=O)OCc1ccccc1` [MG-132] (Cbz-Leu-Leu-Leu-aldehyde) here?
The IC50 was over 1 µM.

And the IC50 (MRK-nu-1; mrk-nu-1)?
The IC50 was over 1 µM.

And the IC50 (BC-3; Homo sapiens, BC-3)?
Its IC50 is over 1 µM.

And the IC50 (BC-3; bc-3)?
Its IC50 is over 1 µM.

What about the IC50 (NCI-H128; nci-h128) of the same compound?
Its IC50 is over 1 µM.

And the IC50 (EC-GI-10; Homo sapiens, EC-GI-10)?
The IC50 was over 1 µM.

And the IC50 (EC-GI-10; ec-gi-10)?
Its IC50 is over 1 µM.

What about the IC50 (SKM-1; skm-1) of the same compound?
Its IC50 is over 1 µM.

And the IC50 (EVSA-T; evsa-t)?
Its IC50 is 0.499 µM and > 1 µM.

And the IC50 (TUR; tur)?
Its IC50 is over 1 µM.

What about the IC50 (EB2; eb2) of the same compound?
Its IC50 is over 1 µM.

And the IC50 (KMOE-2; Homo sapiens, KMOE-2)?
Its IC50 is over 1 µM.

What about the IC50 (KMOE-2; kmoe-2) of the same compound?
The IC50 was over 1 µM.

What about the IC50 (EW-24; Homo sapiens, EW-24) of the same compound?
The IC50 was over 1 µM.

And the IC50 (EW-24; ew-24)?
Its IC50 is over 1 µM.

And the IC50 (TE-15; te-15)?
The IC50 was over 1 µM.

And the IC50 (EW-12; ew-12)?
The IC50 was over 1 µM.

`COc1ccc(N(C(=O)Oc2c(C)cccc2C)c2ccnc(Nc3ccc(N4CCN(C)CC4)cc3)n2)c(OC)c1` was tested. Which IC50 (NCI-H345; Homo sapiens, NCI-H345) did it give?
The IC50 was over 5.12 µM.

What about the IC50 (MRK-nu-1; Homo sapiens, MRK-nu-1) of the same compound?
Its IC50 is 4.72 µM.

What about the IC50 (BC-3; Homo sapiens, BC-3) of the same compound?
The IC50 was over 5.12 µM.

And the IC50 (NCI-H128; Homo sapiens, NCI-H128)?
Its IC50 is over 5.12 µM.

What about the IC50 (EC-GI-10; Homo sapiens, EC-GI-10) of the same compound?
Its IC50 is over 5.12 µM.

What about the IC50 (SKM-1; Homo sapiens, SKM-1) of the same compound?
The IC50 was over 5.12 µM.

And the IC50 (EVSA-T; Homo sapiens, EVSA-T)?
The IC50 was over 5.12 µM.

What about the IC50 (TUR; Homo sapiens, TUR) of the same compound?
Its IC50 is over 5.12 µM.

What about the IC50 (EB2; Homo sapiens, EB2) of the same compound?
The IC50 was over 5.12 µM.

And the IC50 (KMOE-2; Homo sapiens, KMOE-2)?
Its IC50 is over 5.12 µM.

And the IC50 (EW-24; Homo sapiens, EW-24)?
Its IC50 is over 5.12 µM.

What about the IC50 (TE-15; Homo sapiens, TE-15) of the same compound?
Its IC50 is 0.243 µM.

What about the IC50 (EW-12; Homo sapiens, EW-12) of the same compound?
The IC50 was over 5.12 µM.

Which results are given for `O=C1NC(=O)c2c1c(-c1ccccc1Cl)cc1[nH]c3ccc(O)cc3c21`?
IC50 (RT-112): > 2 µM; IC50 (FTC-133): > 2 µM; IC50 (TI-73): > 2 µM; IC50 (CAL-27): > 2 µM; IC50 (HCC38): > 2 µM; IC50 (HT55): > 2 µM; IC50 (TCC-SUP): > 2 µM; IC50 (HLE): > 2 µM; IC50 (CAL-39): > 2 µM; IC50 (SK-MEL-28): > 2 µM; IC50 (SK-MEL-24): > 2 µM; IC50 (MeWo): > 2 µM; IC50 (CHP-212): 0.619 µM; IC50 (786-0): > 2 µM; IC50 (HN): 1.3 µM; IC50 (T84): > 2 µM; IC50 (MG-63): > 2 µM; IC50 (HuO9): 1.96 µM; IC50 (NCI-H1666): > 2 µM; IC50 (COR-L23): 0.752 µM; IC50 (HSC-3): 1.18 µM; IC50 (SW48): > 2 µM; IC50 (LU-135): > 2 µM; IC50 (EPLC-272H): > 2 µM; IC50 (DK-MG): > 2 µM; IC50 (MIA PaCa-2): > 2 µM; IC50 (KU-19-19): > 2 µM; IC50 (NBsusSR): 0.952 µM; IC50 (UO-31): > 2 µM; IC50 (BHT-101): > 2 µM; IC50 (Capan-2): > 2 µM; IC50 (Calu-3): > 2 µM; IC50 (BALL-1): > 2 µM

How did the IC50 (NCI-H345; Homo sapiens, NCI-H345) turn out when `Cc1ccc(NC(=O)c2ccc(CN3CCN(C)CC3)cc2)cc1Nc1nccc(-c2cccnc2)n1` [IMATINIB] was run?
The IC50 was over 2 µM.

What about the IC50 (MRK-nu-1; Homo sapiens, MRK-nu-1) of the same compound?
Its IC50 is over 2 µM.

And the IC50 (BC-3; Homo sapiens, BC-3)?
Its IC50 is over 2 µM.

And the IC50 (NCI-H128; Homo sapiens, NCI-H128)?
The IC50 was over 2 µM.

And the IC50 (EC-GI-10; Homo sapiens, EC-GI-10)?
Its IC50 is over 2 µM.

And the IC50 (SKM-1; Homo sapiens, SKM-1)?
The IC50 was over 2 µM.

And the IC50 (EVSA-T; Homo sapiens, EVSA-T)?
The IC50 was over 2 µM.

What about the IC50 (TUR; Homo sapiens, TUR) of the same compound?
The IC50 was over 2 µM.

What about the IC50 (EB2; Homo sapiens, EB2) of the same compound?
Its IC50 is over 2 µM.

What about the IC50 (KMOE-2; Homo sapiens, KMOE-2) of the same compound?
Its IC50 is over 2 µM.

What about the IC50 (EW-24; Homo sapiens, EW-24) of the same compound?
Its IC50 is over 2 µM.

And the IC50 (TE-15; Homo sapiens, TE-15)?
Its IC50 is over 2 µM.

What about the IC50 (EW-12; Homo sapiens, EW-12) of the same compound?
Its IC50 is over 2 µM.
